# Test system: not listed separately
# Assay: Plasma clearance in dog at 1 mg/kg, iv and 5 mg/kg, po
# Assay type: ADME, organism-based, Canis lupus familiaris
# Conditions: not given
row,SMILES,clearance
1,CNC(=O)c1c(O)c2ncc(Cc3ccc(F)cc3)cc2n(C)c1=O,8.6 mL/min/kg

# Test system: not listed separately
# Assay: Plasma clearance in cynomolgus monkey at 1 mg/kg, iv and 5 mg/kg, po
# Assay type: ADME, organism-based, Macaca fascicularis
# Conditions: not given
row,SMILES,clearance
1,CNC(=O)c1c(O)c2ncc(Cc3ccc(F)cc3)cc2n(C)c1=O,2 mL/min/kg

# Test system: Human immunodeficiency virus
# Assay: Antiviral activity against HIV
# Assay type: functional, organism-based
# Conditions: Human immunodeficiency virus 1
row,SMILES,IC50
1,CSCCNC(=O)c1c(O)c2ncc(Cc3ccc(F)cc3)cc2[nH]c1=O,5 nM
2,Cn1c(=O)c(C(=O)NCCO)c(O)c2ncc(Cc3ccc(F)cc3)cc21 [GSK-364735],2 nM
3,Cn1c(=O)c(C(=O)NC2(CO)CCCC2)c(O)c2ncc(Cc3ccc(F)cc3)cc21,3 nM
4,CC(=O)NCCNC(=O)c1c(O)c2ncc(Cc3ccc(F)cc3)cc2n(C)c1=O,2 nM
5,C[C@H](CO)CNC(=O)c1c(O)c2ncc(Cc3ccc(F)cc3)cc2n(C)c1=O,3 nM
6,Cn1c(=O)c(C(=O)NCC(F)F)c(O)c2ncc(Cc3ccc(F)cc3)cc21,1 nM
7,C[C@H](O)CNC(=O)c1c(O)c2ncc(Cc3ccc(F)cc3)cc2n(C)c1=O,2 nM
8,O=C(NCCCN1CCOCC1)c1c(O)c2ncc(Cc3ccc(F)cc3)cc2[nH]c1=O,6 nM
9,CN1CCN(CCCNC(=O)c2c(O)c3ncc(Cc4ccc(F)cc4)cc3[nH]c2=O)CC1,28 nM
10,CN(CCNC(=O)c1c(O)c2ncc(Cc3ccc(F)cc3)cc2[nH]c1=O)S(C)(=O)=O,9 nM
11,Cn1c(=O)c(C(=O)NCCN2CCNC2=O)c(O)c2ncc(Cc3ccc(F)cc3)cc21,2 nM
12,O=C(NCCO)c1c(O)c2ncc(Cc3ccc(F)cc3)cc2[nH]c1=O,6 nM
13,CC(C)CCNC(=O)c1c(O)c2ncc(Cc3ccc(F)cc3)cc2[nH]c1=O,8 nM
14,COCCNC(=O)c1c(O)c2ncc(Cc3ccc(F)cc3)cc2[nH]c1=O,5 nM
15,CC(C)(CO)CNC(=O)c1c(O)c2ncc(Cc3ccc(F)cc3)cc2[nH]c1=O,4 nM
16,C[C@H](CO)NC(=O)c1c(O)c2ncc(Cc3ccc(F)cc3)cc2[nH]c1=O,7 nM
17,CN(CCNC(=O)c1c(O)c2ncc(Cc3ccc(F)cc3)cc2n(C)c1=O)S(C)(=O)=O,1 nM
18,Cn1c(=O)c(C(=O)NC(C)(C)CO)c(O)c2ncc(Cc3ccc(F)cc3)cc21,3 nM
19,CNC(=O)c1c(O)c2ncc(Cc3ccc(F)cc3)cc2n(C)c1=O,1 nM
20,O=C(NCCN1CCCCC1)c1c(O)c2ncc(Cc3ccc(F)cc3)cc2[nH]c1=O,38 nM

# Test system: not listed separately
# Assay: AUC in CD rat at 5 mg/kg, po
# Assay type: ADME, organism-based
# Set-up: dose 5 mg/kg, route oral
# Conditions: plasma
row,SMILES,AUC
1,Cn1c(=O)c(C(=O)NCCO)c(O)c2ncc(Cc3ccc(F)cc3)cc21 [GSK-364735],22800 ng·h/mL
2,Cn1c(=O)c(C(=O)NCCN2CCNC2=O)c(O)c2ncc(Cc3ccc(F)cc3)cc21,3550 ng·h/mL
3,O=C(NCCO)c1c(O)c2ncc(Cc3ccc(F)cc3)cc2[nH]c1=O,3060 ng·h/mL
4,COCCNC(=O)c1c(O)c2ncc(Cc3ccc(F)cc3)cc2[nH]c1=O,1650 ng·h/mL
5,C[C@H](CO)NC(=O)c1c(O)c2ncc(Cc3ccc(F)cc3)cc2[nH]c1=O,6370 ng·h/mL
6,CN(CCNC(=O)c1c(O)c2ncc(Cc3ccc(F)cc3)cc2n(C)c1=O)S(C)(=O)=O,5810 ng·h/mL

# Test system: not listed separately
# Assay: Plasma clearance in CD rat at 1 mg/kg, iv and 5 mg/kg, po
# Assay type: ADME, organism-based
# Conditions: not given
row,SMILES,clearance
1,Cn1c(=O)c(C(=O)NCCO)c(O)c2ncc(Cc3ccc(F)cc3)cc21 [GSK-364735],3.2 mL/min/kg

# Test system: not listed separately
# Assay: Half life in dog at 1 mg/kg, iv and 5 mg/kg, po
# Assay type: ADME, organism-based, Canis lupus familiaris
# Conditions: in vivo
row,SMILES,half-life
1,CNC(=O)c1c(O)c2ncc(Cc3ccc(F)cc3)cc2n(C)c1=O,96 min

# Test system: Human immunodeficiency virus
# Assay: Antiviral activity against HIV infected in human MT4 cells
# Assay type: functional, organism-based
# Conditions: Human immunodeficiency virus 1, MT4
row,SMILES,IC50
1,Cn1c(=O)c(C(=O)NCCO)c(O)c2ncc(Cc3ccc(F)cc3)cc21 [GSK-364735],5 nM
2,CC(=O)NCCNC(=O)c1c(O)c2ncc(Cc3ccc(F)cc3)cc2n(C)c1=O,22 nM
3,Cn1c(=O)c(C(=O)NCCN2CCNC2=O)c(O)c2ncc(Cc3ccc(F)cc3)cc21,11 nM
4,O=C(NCCO)c1c(O)c2ncc(Cc3ccc(F)cc3)cc2[nH]c1=O,80 nM
5,C[C@H](CO)NC(=O)c1c(O)c2ncc(Cc3ccc(F)cc3)cc2[nH]c1=O,20 nM
6,CN(CCNC(=O)c1c(O)c2ncc(Cc3ccc(F)cc3)cc2n(C)c1=O)S(C)(=O)=O,7 nM

# Test system: not listed separately
# Assay: Ratio of plasma concentration in cynomolgus monkey at 1 mg/kg, iv and 5 mg/kg, po after 24 hrs to IC50 for HIV in presence of 40 mg/mL of purified human serum albumin
# Assay type: ADME, organism-based
# Conditions: in vivo
row,SMILES,Ratio
1,CNC(=O)c1c(O)c2ncc(Cc3ccc(F)cc3)cc2n(C)c1=O,9.2

# Test system: not listed separately
# Assay: Ratio of plasma concentration in CD rat at 1 mg/kg, iv and 5 mg/kg, po after 24 hrs to IC50 for HIV in presence of 40 mg/mL of purified human serum albumin
# Assay type: ADME, organism-based
# Conditions: in vivo
row,SMILES,Ratio
1,Cn1c(=O)c(C(=O)NCCO)c(O)c2ncc(Cc3ccc(F)cc3)cc21 [GSK-364735],0.3
2,Cn1c(=O)c(C(=O)NCCN2CCNC2=O)c(O)c2ncc(Cc3ccc(F)cc3)cc21,0
3,O=C(NCCO)c1c(O)c2ncc(Cc3ccc(F)cc3)cc2[nH]c1=O,0.8
4,COCCNC(=O)c1c(O)c2ncc(Cc3ccc(F)cc3)cc2[nH]c1=O,0.1
5,C[C@H](CO)NC(=O)c1c(O)c2ncc(Cc3ccc(F)cc3)cc2[nH]c1=O,0
6,CN(CCNC(=O)c1c(O)c2ncc(Cc3ccc(F)cc3)cc2n(C)c1=O)S(C)(=O)=O,1.7

# Test system: not listed separately
# Assay: Therapeutic index, ratio of cytotoxicity against human MT4 cells to antiviral activity against HIV
# Assay type: cell-based
# Conditions: read-out: TI
row,SMILES,selectivity ratio
1,Cn1c(=O)c(C(=O)NCCO)c(O)c2ncc(Cc3ccc(F)cc3)cc21 [GSK-364735],> 2000
2,CC(=O)NCCNC(=O)c1c(O)c2ncc(Cc3ccc(F)cc3)cc2n(C)c1=O,807
3,Cn1c(=O)c(C(=O)NCCN2CCNC2=O)c(O)c2ncc(Cc3ccc(F)cc3)cc21,1620
4,O=C(NCCO)c1c(O)c2ncc(Cc3ccc(F)cc3)cc2[nH]c1=O,> 250
5,C[C@H](CO)NC(=O)c1c(O)c2ncc(Cc3ccc(F)cc3)cc2[nH]c1=O,> 400
6,CN(CCNC(=O)c1c(O)c2ncc(Cc3ccc(F)cc3)cc2n(C)c1=O)S(C)(=O)=O,> 7200

# Target: Human immunodeficiency virus type 1 integrase (Human immunodeficiency virus 1, UniProt Q7ZJM1)
# Sequence (Q7ZJM1 whole entry): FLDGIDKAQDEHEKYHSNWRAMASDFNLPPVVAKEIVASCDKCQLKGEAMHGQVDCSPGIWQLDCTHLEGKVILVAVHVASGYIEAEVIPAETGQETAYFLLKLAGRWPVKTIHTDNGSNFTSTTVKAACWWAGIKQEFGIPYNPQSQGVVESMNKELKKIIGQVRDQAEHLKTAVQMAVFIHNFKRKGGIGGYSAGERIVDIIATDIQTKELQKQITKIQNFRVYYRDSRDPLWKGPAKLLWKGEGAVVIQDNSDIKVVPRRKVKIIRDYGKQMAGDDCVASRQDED
# Assay: Inhibition of HIV1 integrase strand transfer activity
# Conditions: not given
row,SMILES,IC50
1,CSCCNC(=O)c1c(O)c2ncc(Cc3ccc(F)cc3)cc2[nH]c1=O,5 nM
2,Cn1c(=O)c(C(=O)NCCO)c(O)c2ncc(Cc3ccc(F)cc3)cc21 [GSK-364735],8 nM
3,Cn1c(=O)c(C(=O)NC2(CO)CCCC2)c(O)c2ncc(Cc3ccc(F)cc3)cc21,7 nM
4,CC(=O)NCCNC(=O)c1c(O)c2ncc(Cc3ccc(F)cc3)cc2n(C)c1=O,5 nM
5,C[C@H](CO)CNC(=O)c1c(O)c2ncc(Cc3ccc(F)cc3)cc2n(C)c1=O,4 nM
6,Cn1c(=O)c(C(=O)NCC(F)F)c(O)c2ncc(Cc3ccc(F)cc3)cc21,5 nM
7,C[C@H](O)CNC(=O)c1c(O)c2ncc(Cc3ccc(F)cc3)cc2n(C)c1=O,2 nM
8,O=C(NCCCN1CCOCC1)c1c(O)c2ncc(Cc3ccc(F)cc3)cc2[nH]c1=O,8 nM
9,CN1CCN(CCCNC(=O)c2c(O)c3ncc(Cc4ccc(F)cc4)cc3[nH]c2=O)CC1,11 nM
10,CN(CCNC(=O)c1c(O)c2ncc(Cc3ccc(F)cc3)cc2[nH]c1=O)S(C)(=O)=O,4 nM
11,Cn1c(=O)c(C(=O)NCCN2CCNC2=O)c(O)c2ncc(Cc3ccc(F)cc3)cc21,5 nM
12,O=C(NCCO)c1c(O)c2ncc(Cc3ccc(F)cc3)cc2[nH]c1=O,5 nM
13,CC(C)CCNC(=O)c1c(O)c2ncc(Cc3ccc(F)cc3)cc2[nH]c1=O,5 nM
14,COCCNC(=O)c1c(O)c2ncc(Cc3ccc(F)cc3)cc2[nH]c1=O,5 nM
15,CC(C)(CO)CNC(=O)c1c(O)c2ncc(Cc3ccc(F)cc3)cc2[nH]c1=O,4 nM
16,C[C@H](CO)NC(=O)c1c(O)c2ncc(Cc3ccc(F)cc3)cc2[nH]c1=O,5 nM
17,CN(CCNC(=O)c1c(O)c2ncc(Cc3ccc(F)cc3)cc2n(C)c1=O)S(C)(=O)=O,5 nM
18,Cn1c(=O)c(C(=O)NC(C)(C)CO)c(O)c2ncc(Cc3ccc(F)cc3)cc21,6 nM
19,CNC(=O)c1c(O)c2ncc(Cc3ccc(F)cc3)cc2n(C)c1=O,4 nM
20,O=C(NCCN1CCCCC1)c1c(O)c2ncc(Cc3ccc(F)cc3)cc2[nH]c1=O,14 nM

# Test system: not listed separately
# Assay: AUC in dog at 5 mg/kg, po
# Assay type: ADME, organism-based, Canis lupus familiaris
# Set-up: dose 5 mg/kg, route oral
# Conditions: plasma
row,SMILES,AUC
1,CNC(=O)c1c(O)c2ncc(Cc3ccc(F)cc3)cc2n(C)c1=O,13200 ng·h/mL

# Test system: not listed separately
# Assay: AUC (0 to 24 hrs) in cynomolgus monkey at 5 mg/kg, po
# Assay type: ADME, organism-based, Macaca fascicularis
# Set-up: time < 24 hr, dose 5 mg/kg, route oral
# Conditions: plasma
row,SMILES,AUC(0-t) at 24 h
1,CNC(=O)c1c(O)c2ncc(Cc3ccc(F)cc3)cc2n(C)c1=O,38600 ng·h/mL

# Test system: Human immunodeficiency virus
# Assay: Antiviral activity against HIV in presence of 40 mg/mL of purified human serum albumin
# Assay type: functional, organism-based
# Conditions: Human immunodeficiency virus 1
row,SMILES,IC50
1,CSCCNC(=O)c1c(O)c2ncc(Cc3ccc(F)cc3)cc2[nH]c1=O,256 nM
2,Cn1c(=O)c(C(=O)NCCO)c(O)c2ncc(Cc3ccc(F)cc3)cc21 [GSK-364735],20 nM
3,Cn1c(=O)c(C(=O)NC2(CO)CCCC2)c(O)c2ncc(Cc3ccc(F)cc3)cc21,180 nM
4,CC(=O)NCCNC(=O)c1c(O)c2ncc(Cc3ccc(F)cc3)cc2n(C)c1=O,12 nM
5,C[C@H](CO)CNC(=O)c1c(O)c2ncc(Cc3ccc(F)cc3)cc2n(C)c1=O,18 nM
6,Cn1c(=O)c(C(=O)NCC(F)F)c(O)c2ncc(Cc3ccc(F)cc3)cc21,2900 nM
7,C[C@H](O)CNC(=O)c1c(O)c2ncc(Cc3ccc(F)cc3)cc2n(C)c1=O,110 nM
8,O=C(NCCCN1CCOCC1)c1c(O)c2ncc(Cc3ccc(F)cc3)cc2[nH]c1=O,37 nM
9,CN1CCN(CCCNC(=O)c2c(O)c3ncc(Cc4ccc(F)cc4)cc3[nH]c2=O)CC1,110 nM
10,CN(CCNC(=O)c1c(O)c2ncc(Cc3ccc(F)cc3)cc2[nH]c1=O)S(C)(=O)=O,49 nM
11,Cn1c(=O)c(C(=O)NCCN2CCNC2=O)c(O)c2ncc(Cc3ccc(F)cc3)cc21,9 nM
12,O=C(NCCO)c1c(O)c2ncc(Cc3ccc(F)cc3)cc2[nH]c1=O,51 nM
13,CC(C)CCNC(=O)c1c(O)c2ncc(Cc3ccc(F)cc3)cc2[nH]c1=O,230 nM
14,COCCNC(=O)c1c(O)c2ncc(Cc3ccc(F)cc3)cc2[nH]c1=O,35 nM
15,CC(C)(CO)CNC(=O)c1c(O)c2ncc(Cc3ccc(F)cc3)cc2[nH]c1=O,41 nM
16,C[C@H](CO)NC(=O)c1c(O)c2ncc(Cc3ccc(F)cc3)cc2[nH]c1=O,33 nM
17,CN(CCNC(=O)c1c(O)c2ncc(Cc3ccc(F)cc3)cc2n(C)c1=O)S(C)(=O)=O,7 nM
18,Cn1c(=O)c(C(=O)NC(C)(C)CO)c(O)c2ncc(Cc3ccc(F)cc3)cc21,28 nM
19,CNC(=O)c1c(O)c2ncc(Cc3ccc(F)cc3)cc2n(C)c1=O,55 nM
20,O=C(NCCN1CCCCC1)c1c(O)c2ncc(Cc3ccc(F)cc3)cc2[nH]c1=O,172 nM

# Test system: not listed separately
# Assay: Ratio of plasma concentration in dog at 1 mg/kg, iv and 5 mg/kg, po after 24 hrs to IC50 for HIV in presence of 40 mg/mL of purified human serum albumin
# Assay type: ADME, organism-based
# Conditions: in vivo
row,SMILES,Ratio
1,CNC(=O)c1c(O)c2ncc(Cc3ccc(F)cc3)cc2n(C)c1=O,0.8

# Test system: not listed separately
# Assay: Half life in cynomolgus monkey at 1 mg/kg, iv and 5 mg/kg, po
# Assay type: ADME, organism-based, Macaca fascicularis
# Conditions: in vivo
row,SMILES,half-life
1,CNC(=O)c1c(O)c2ncc(Cc3ccc(F)cc3)cc2n(C)c1=O,234 min

# Source: ChEMBL document CHEMBL2311459, “Naphthyridinone (NTD) integrase inhibitors: N1 protio and methyl combination substituent effects with C3 amide groups” (Bioorg Med Chem Lett, 2013)
